Source: patent publication US7410797B2, “Meningeal-derived stem cells” (priority 2002, dated 2008)

Key:
Cells from the meninges = test: Neural differentiation of meningeal-derived stem cells in induction media; assay type: cell-based; details: for effect on neural differentiation compared with dexamethasone: used as substitutes for dexamethasone
Experimental: Cells from the meninges that are allowed to become 70% confluent (FIG. 2A) are susceptible to differentiating into nerve under two conditions: antioxidant treatment and steroid hormone treatment. […] This can also be achieved with other antioxidants (i.e., reducing agents), such as butylated hydroxyanisole (BHA) (approximately 200 μM), dithiothreitol (DTT; i.e., Cleland's reagent), as well as dithioerythritol, tributylphosphine, iodoacetamide, tris-phosphine HCl, deoxythymidine-triphosphate trilithium salt, diethylthiatricarbocyanine perchlorate, diethylthiatricarbocyanine iodide and DECROLINE D (available from BASF Corporation; Mount Olive, N.J.; generic name zinc formaldehyde sulfoxylate). These conditions are similar to those used to differentiate bone marrow-derived stem cells and adipose-derived stem cells (D. Woodbury et al., “Adult rat and human bone marrow stromal cells differentiate into neurons,” J. Neuroscience Res., 61(4):364-70 (2000)). The cells that form have a bipolar morphology and express nerve-specific markers.
The cells differentiate into what are morphologically distinct subsets of neurons when exposed to small concentrations (e.g, 100 nM) of dexamethasone; a steroid hormone.
These may therefore be used as substitutes for dexamethasone. Other steroids that may be used in accordance with this embodiment of the present invention include pregnenolone, aldosterone, testosterone, estradiol and cortisol.

Dural cells = test: Osseous differentiation of dural cells plated on substrate (alkaline phosphatase staining); assay type: cell-based; details: substrate 100 μg/cm^2
Experimental: Dural cells were forced to adopt a bony phenotype by two separate methods. The first included plating these cells on a MATRIGEL or laminin substrate (100 μg/cm^2).

For `C=C1/C(=C\C=C2/CCC[C@]3(C)[C@@H]([C@H](C)CCCC(C)(C)O)CC[C@@H]23)C[C@@H](O)C[C@@H]1O` [1,25-dihydroxy vitamin D3], the “effect on neural differentiation compared with dexamethasone” value (shortened to “effect on neural differentiation”) (Cells from the meninges) was “elicited similar effects to dexamethasone”.
`CC1=C(/C=C/C(C)=C/C=C/C(C)=C/C=O)C(C)(C)CCC1` [retinaldehyde] was tested, and the “effect on neural differentiation” value (Cells from the meninges) was “elicited similar effects to dexamethasone”.
For `CC1=C(/C=C/C(C)=C/C=C/C(C)=C/CO)C(C)(C)CCC1` [retinol], the “effect on neural differentiation” value (Cells from the meninges) was “elicited similar effects to dexamethasone”.
In the case of `OCCS` [β-mercaptoethanol], the “differentiation into neural-like cells” value (Cells from the meninges; pre-induction media with 1 mM β-mercaptoethanol for 24 hours, then induction media DMEM, 5 mM β-mercaptoethanol, cells 70% confluent) is reported as “differentiate into neural-like cells within six hours”.
For laminin, the “expression of alkaline phosphatase (differentiated bone marker)” value (Dural cells) was “expressed alkaline phosphatase (a differentiated bone marker) within seven days”.
vitamin A was tested, and the “effect on neural differentiation” value (Cells from the meninges) was “elicited similar effects to dexamethasone”.
